Common to all, as to assay type: cell-based
For test [1], the system named is Hep3B cells (hepatocellular carcinoma cell line). As to the kind of experiment: In vitro MTS cell viability assay (NCI-60 methodology), Hep3B. The note with it: Homo sapiens, 48 h, 2 days drug incubation, 50% reduction vs time zero, read-out: Hep3B LC50. Put shortly: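 Hep3B cells given five 2-fold dilutions of compound for 2 days, with viability by MTS measured at time zero and at end. LC50 is the concentration giving a 50% fall in viable cells relative to the start of treatment, per NCI-60 formula.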
(In general: Tetrazolium dyes change colour on reduction, which living cells bring about.)

Test [2] relates to SW480 (colon adenocarcinoma cell line). As to the kind of experiment: In vitro MTS cell viability assay (NCI-60 methodology), SW480. The note with it: Homo sapiens, SW480 cells, read-out: SW480 LC50. The essentials:
(§1)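 NCI-60 style: compound added 24 h post-plating at five 2-fold dilutions plus DMSO control, then 2 days' incubation, MTS read-out. Time-zero plate gives Tz; LC50 is the concentration where [(Ti−Tz)/Tz]×100=−50.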

In test [3] the test system is NCI-H460 (human lung cancer cell line). As to the kind of experiment: In vitro MTS cell viability assay (NCI-60 methodology), NCI-H460. The conditions noted are these: NCI-H460 cells, read-out: NCI-H460 LC50. The essentials:
as §1

SMILES strings stand for the structures. Where two headings read alike, the source gives them in different places. A value given as a limit tells only on which side of the number the result lay.

For orientation: LC50 means the concentration that kills 50% of the test population. For the compound `CN(C)CCOc1ccc(-c2nc(NC(=O)c3ccc([N+](=O)[O-])s3)c3cnn(-c4ccc(F)cc4)c3n2)cn1` [Compound 6-130, N-(6-(6-(2-(dimethylamino)ethoxy)pyridin-3-yl)-1-(4-fluorophenyl)-1H-pyrazolo[3,4-d]pyrimidin-4-yl)-5-nitrothiophene-2-carboxamide], the LC50 in test [1] (Table 6, MTS) was 260 nM. The CC50 in test [2] stood at 2900 nM; in test [3], 3810 nM.
The corresponding values for `CCCOc1ccc(-c2nc(NC(=O)c3ccc([N+](=O)[O-])s3)c3cnn(-c4ccc(F)cc4)c3n2)cn1` [Compound 6-133, N-(1-(4-fluorophenyl)-6-(6-propoxypyridin-3-yl)-1H-pyrazolo[3,4-d]pyrimidin-4-yl)-5-nitrothiophene-2-carboxamide] are 160 nM, 430 nM and 490 nM.
Consider `COCCOc1ccc(-c2nc(NC(=O)c3ccc([N+](=O)[O-])s3)c3cnn(-c4ccc(F)cc4)c3n2)cn1` [Compound 6-135, N-(1-(4-fluorophenyl)-6-(6-(2-methoxyethoxy)pyridin-3-yl)-1H-pyrazolo[3,4-d]pyrimidin-4-yl)-5-nitrothiophene-2-carboxamide], for which the LC50 in test [1] (Table 6, MTS) amounted to 220 nM. The CC50 was determined as 690 nM in test [2] and 560 nM in test [3].
For `O=C(Nc1nc(-c2ccc(F)cc2)nc2c1cnn2-c1ccc(C(F)(F)F)cn1)c1ccc([N+](=O)[O-])s1` [Compound 7-1, N-(6-(4-fluorophenyl)-1-(5-(trifluoromethyl)pyridin-2-yl)-1H-pyrazolo[3,4-d]pyrimidin-4-yl)-5-nitrothiophene-2-carboxamide], in test [1] (Table 7, MTS), the LC50 was 260 nM. For the same compound, the CC50 in test [2] was above 20000 nM; in test [3] it was 8630 nM.
The corresponding values for `O=C(Nc1nc(-c2ccc(Cl)cc2)nc2c1cnn2-c1ccc(C(F)(F)F)cn1)c1ccc([N+](=O)[O-])s1` [Compound 7-3, N-(6-(4-chlorophenyl)-1-(5-(trifluoromethyl)pyridin-2-yl)-1H-pyrazolo[3,4-1]pyrimidin-4-yl)-5-nitrothiophene-2-carboxamide] are 130 nM, 530 nM and 400 nM.
For the compound `COC(=O)c1ccc(-c2nc(NC(=O)c3ccc([N+](=O)[O-])s3)c3cnn(C4CCN(C(=O)OC(C)(C)C)CC4)c3n2)cc1` [Compound 9-3, tert-butyl 4-(6-(4-(methoxycarbonyl)phenyl)-4-(5-nitrothiophene-2-carboxamido)-1H-pyrazolo[3,4-d]pyrmidin-1-yl)piperidine-1-carboxylate], the LC50 in test [1] (Table 9, MTS) stood at 420 nM. Further, the results for the CC50 in test [2] and in test [3] were 2720 nM and 1220 nM, respectively.
As to `CC(C)(C)OC(=O)N1CCC(n2ncc3c(NC(=O)c4ccc([N+](=O)[O-])s4)nc(-c4ccc(Cl)cc4)nc32)CC1` [Compound 9-5, tert-butyl 4-(6-(4-chlorophenyl)-4-(5-nitrothiophene-2-carboxamido)-1H-pyrazolo [3,4-d]pyrimidin-1-yl)piperidine-1-carboxylate], the 50% lethal concentration (LC50) in test [1] (Table 9, MTS) worked out at 450 nM. The CC50 in test [2] stood at 2780 nM; in test [3], 1300 nM.
In the case of `O=C(Nc1nc(-c2ccc(F)cc2)nc2c1cnn2C1CCCCC1)c1ccc([N+](=O)[O-])s1` [Compound 10-13, N-(1-cyclohexyl-6-(4-fluorophenyl)-1H-pyrazolo[3,4-d]pyrimidin-4-yl)-5-nitrothiophene-2-carboxamide], the LC50 in test [1] (Table 10, MTS) was 700 nM. Also, the CC50 is 1730 nM in test [2] and 2620 nM in test [3].
On to `O=C(Nc1nc(-c2ccc(F)nc2)nc2c1cnn2C1CCCCC1)c1ccc([N+](=O)[O-])s1` [Compound 10-14, N-(1-cyclohexyl-6-(6-fluoropyridin-3-yl)-1H-pyrazolo[3,4-d]pyrimidin-4-yl)-5-nitrothiophene-2-carboxamide], for which the LC50 in test [1] (Table 10, MTS) came to 890 nM. The CC50 in test [2] was determined as 1710 nM; in test [3], 910 nM.
The corresponding values for `O=C(Nc1nc(-c2ccc(Cl)nc2)nc2c1cnn2C1CCCCC1)c1ccc([N+](=O)[O-])s1` [Compound 10-18, N-(6-(6-chloropyridin-3-yl)-1-cyclohexyl-1H-pyrazolo[3,4-d]pyrimidin-4-yl)-5-nitrothiophene-2-carboxamide] are 680 nM, 950 nM and 850 nM.
The corresponding values for `CCOc1ccc(-c2nc(NC(=O)c3ccc([N+](=O)[O-])s3)c3cnn(C4CCCCC4)c3n2)cn1` [Compound 10-23, N-(1-cyclohexyl-6-(6-ethoxypyridin-3-yl)-1H-pyrazolo[3,4-d]pyrimidin-4-yl)-5-nitrothiophene-2-carboxamide] are 570 nM, 1660 nM and 3010 nM.
As for `COC(=O)c1ccc(-c2nc(NC(=O)c3ccc([N+](=O)[O-])s3)c3cnn(C4CCCCC4)c3n2)cc1` [Compound 10-32, methyl 4-(1-cyclohexyl-4-(5-nitrothiophene-2-carboxamido)-1H-pyrazolo[3,4-d]pyrmidin-6-yl)benzoate], the 50% lethal concentration (LC50) in test [1] (Table 10, MTS) was determined as 400 nM. Also, the CC50 in test [2] came out at 1210 nM; in test [3] it was 1720 nM.
Turning to `O=C(Nc1nc(-c2ccc(F)c(F)c2)nc2c1cnn2C1CCCCC1)c1ccc([N+](=O)[O-])s1` [Compound 10-40, N-(1-cyclohexyl-6-(3,4-difluorophenyl)-1H-pyrazolo[3,4-d]pyrimidin-4-yl)-5-nitrothiophene-2-carboxamide], the LC50 in test [1] (Table 10, MTS) came to 320 nM. Also, the CC50 stood at 1040 nM in test [2] and 1160 nM in test [3].
The corresponding values for `O=C(Nc1nc(-c2ccc(F)nc2)nc2c1cnn2C1CCC(F)(F)CC1)c1ccc([N+](=O)[O-])s1` [Compound 10-55, N-(1-(4,4-difluorocyclohexyl)-6-(6-fluoropyridin-3-yl)-1H-pyrazolo[3,4-d]pyrimidin-4-yl)-5-nitrothiophene-2-carboxamide] are 710 nM, 1060 nM and 940 nM.
On to `O=C(Nc1nc(-c2ccc(Cl)nc2)nc2c1cnn2C1CCC(F)(F)CC1)c1ccc([N+](=O)[O-])s1` [Compound 10-57, N-(6-(6-chloropyridin-3-yl)-1-(4,4-difluorocyclohexyl)-TH-pyrazolo[3,4-d]pyrimidin-4-yl)-5-nitrothiophene-2-carboxamide], for which the LC50 in test [1] (Table 10, MTS) was determined as 570 nM. Besides, the CC50 came out at 1340 nM in test [2] and 1300 nM in test [3].

Values taken from patent publication US20240150356A1, “Pyrimidine amide compounds and use thereof” (ALPHALA CO., LTD., priority 2019, published 2024).
